Literature values as cited in US20090022826A1, “Multi-step method of pain and/or inflammation treatment” (priority 2007, published 2009).

solubility in alcohol (alcohol): soluble | solubility in mineral oil (mineral oil): insoluble | solubility in vegetable oil (vegetable oil): partially soluble | solubility in water (water): soluble
Compound: CCOCCOCCO [Ethoxydiglycol, diethylene glycol monoethyl ether]
